Values quoted from earlier work, collected in patent EP0530832A1, “Method for processing a silver halide color photographic light-sensitive material” (KONICA CORPORATION, priority 1991, dated 1993).

Test system: rats
Conditions: rats in an environment containing 15 ppm of formalin

C=O [formalin]
nasal cancers: developed nasal cancers
